Measurements published in patent US20240308996A1, “PYRIDOPYRIDINES AND DERIVATIVES THEREOF AS SELECTIVE KINASE INHIBITORS” (University of Sharjah, priority 2023, published 2024).

Legend:
Assay type in all cases: cell-based
[1] = system: OVCAR-4; experiment: NCI-60 cell line panel: OVCAR-4; details: Ovarian Cancer
Protocol: (§1) It was carried out at the NCI, Bethesda, MD, USA, utilizing their standard protocol.

[2] = system: SF-295; experiment: NCI-60 cell line panel: SF-295; details: CNS Cancer
Protocol: as §1

[3] = system: EKVX; experiment: NCI-60 cell line panel: EKVX; details: Non-Small Cell Lung Cancer
Protocol: as §1

[4] = system: NCI-H322M; experiment: NCI-60 cell line panel: NCI-H322M; details: Non-Small Cell Lung Cancer
Protocol: as §1

[5] = system: Hep3B; experiment: MTT assay, Hep3B HCC cell line; details: Homo sapiens, 48 h, mean of triplicate assays ± SEM
Protocol: (§2) Two HCC cell lines (Hep3B and HepG2) were used for screening the antiproliferative activity of the synthesized compounds. The cell lines were obtained from the European Collection of Cell Cultures (ECACC, UK) and maintained in Dulbecco's Modified Eagle Medium (DMEM: Sigma-Aldrich) supplemented with 10% fetal bovine serum (FBS) and 1% penicillin/streptomycin and incubated at 37° C. in a 5% CO2 air atmosphere. In addition, WI-38 normal cell line was used to investigate the safety of these compounds.
(§3) MTT assay was conducted to calculate the IC50 of the compounds following the reported procedure . Briefly, the cells were seeded in 96-well tissue culture plates with a density of 5×10^4 cells/well and incubated overnight at 37° C. in a 5% CO2 air atmosphere. […] DMSO was used as a negative control. After 48 h, the media were aspirated, and replaced with media containing 0.5 mg/mL of MTT tetrazolium dye (Sigma-Aldrich) for 2 h at 37° C. Finally, the media were removed and 200 μL of DMSO was added to solubilize the formazan crystals. Absorbance was then measured at 570 nm using Varioskan Flash multimode plate reader (Thermo Scientific, Massachusetts, USA).

[6] = system: HCT-116; experiment: NCI-60 cell line panel: HCT-116; details: Colon Cancer
Protocol: as §1

[7] = system: HOP-62; experiment: NCI-60 cell line panel: HOP-62; details: Non-Small Cell Lung Cancer
Protocol: as §1

[8] = system: MDA-MB-468; experiment: NCI-60 cell line panel: MDA-MB-468; details: Breast Cancer
Protocol: as §1

[9] = system: SN12C; experiment: NCI-60 cell line panel: SN12C; details: Renal Cancer
Protocol: as §1

[10] = system: BT-549; experiment: NCI-60 cell line panel: BT-549; details: Breast Cancer
Protocol: as §1

[11] = system: U251; experiment: NCI-60 cell line panel: U251; design: TGI: unit not given here
Protocol: as §1

[12] = system: SNB-19; experiment: NCI-60 cell line panel: SNB-19; details: CNS Cancer
Protocol: as §1

[13] = system: MOLT-4; experiment: NCI-60 cell line panel: MOLT-4; design: TGI: unit not given here; details: Leukemia
Protocol: as §1

[14] = system: MALME-3M; experiment: NCI-60 cell line panel: MALME-3M; details: Melanoma
Protocol: as §1

[15] = system: HT29; experiment: NCI-60 cell line panel: HT29
Protocol: as §1

[16] = system: OVCAR-3; experiment: NCI-60 cell line panel: OVCAR-3; details: Ovarian Cancer
Protocol: as §1

[17] = system: UACC-62; experiment: NCI-60 cell line panel: UACC-62; details: Melanoma
Protocol: as §1

[18] = system: MCF7; experiment: NCI-60 cell line panel: MCF7; details: Breast Cancer
Protocol: as §1

[19] = system: NCI-H522; experiment: NCI-60 cell line panel: NCI-H522; design: TGI: unit not given here; details: Non-Small Cell Lung Cancer
Protocol: as §1

[20] = system: NCI-H460; experiment: NCI-60 cell line panel: NCI-H460; details: Non-Small Cell Lung Cancer
Protocol: as §1

[21] = system: SK-MEL-5; experiment: NCI-60 cell line panel: SK-MEL-5; details: Melanoma
Protocol: as §1

[22] = system: HepG2; experiment: MTT assay, HepG2 HCC cell line; details: Homo sapiens, 48 h, mean of triplicate assays ± SEM
Protocol: as §2, §3

[23] = system: 786-0; experiment: NCI-60 cell line panel: 786-0; details: Renal Cancer
Protocol: as §1

[24] = system: HOP-92; experiment: NCI-60 cell line panel: HOP-92; design: TGI: unit not given here; details: Non-Small Cell Lung Cancer
Protocol: as §1

[25] = system: A549/ATCC; experiment: NCI-60 cell line panel: A549/ATCC; details: Non-Small Cell Lung Cancer
Protocol: as §1

[26] = system: PC-3; experiment: NCI-60 cell line panel: PC-3; details: Prostate Cancer
Protocol: as §1

[27] = system: SK-MEL-2; experiment: NCI-60 cell line panel: SK-MEL-2; design: TGI: unit not given here; details: Melanoma
Protocol: as §1

[28] = system: OVCAR-8; experiment: NCI-60 cell line panel: OVCAR-8; details: Ovarian Cancer
Protocol: as §1

[29] = system: UACC-257; experiment: NCI-60 cell line panel: UACC-257; details: Melanoma
Protocol: as §1

[30] = system: NCI-H23; experiment: NCI-60 cell line panel: NCI-H23; details: Non-Small Cell Lung Cancer
Protocol: as §1

[31] = system: COLO 205; experiment: NCI-60 cell line panel: COLO 205; design: TGI: unit not given here; details: Colon Cancer
Protocol: as §1

[32] = system: HS 578T; experiment: NCI-60 cell line panel: HS 578T
Protocol: as §1

[33] = total growth inhibition, in µM (unit assumed)

Q: Which results are given for `CC(C)NC(=O)c1cc(-c2ccc(NC(=O)Nc3ccc(N4CCN(C)CC4)c(C(F)(F)F)c3)cc2)nc2cccnc12` [Compound 13e, N-Isopropyl-2-(4-(3-(4-(4-methylpiperazin-1-yl)-3-(trifluoromethyl)phenyl)ureido)phenyl)-1,5-naphthyridine-4-carboxamide]?
A: IC50 ([1]; Homo sapiens): 740 nM; TGI [1, 33]: 1.62; TGI ([2]; total growth inhibition, unit assumed): 1.13 µM; IC50 ([2]; Homo sapiens): 570 nM; IC50 ([3]; Homo sapiens): 770 nM; TGI [3, 33]: 1.49; IC50 ([4]; Homo sapiens): 710 nM; TGI ([4]; total growth inhibition): 1.55 µM; IC50 [5]: 1760 ± 10 nM; TGI ([6]; total growth inhibition): 1.35 µM; IC50 ([6]; Homo sapiens): 690 nM; IC50 ([7]; Homo sapiens): 870 nM; TGI ([7]; total growth inhibition): 1.94 µM; TGI ([8]; total growth inhibition): 1.36 µM; IC50 ([8]; Homo sapiens): 710 nM; IC50 ([9]; Homo sapiens): 680 nM; TGI ([9]; total growth inhibition): 1.26 µM; TGI ([10]; total growth inhibition): 7.41 µM; IC50 ([10]; Homo sapiens): 2100 nM; TGI ([11]; CNS Cancer, total growth inhibition): 1.34; IC50 ([11]; Homo sapiens, U-251, CNS Cancer): 670 nM; TGI ([12]; total growth inhibition): 1.56 µM; IC50 ([12]; Homo sapiens): 730 nM; IC50 ([13]; Homo sapiens): 760 nM; TGI ([13]; total growth inhibition): 2.89; IC50 ([14]; Homo sapiens): 640 nM; TGI [14, 33]: 1.18; TGI ([15]; Colon Cancer, total growth inhibition): 1.37 µM; IC50 ([15]; Homo sapiens, HT-29, Colon Cancer): 670 nM; IC50 ([16]; Homo sapiens): 650 nM; TGI ([16]; total growth inhibition): 1.33 µM; IC50 ([17]; Homo sapiens): 660 nM; TGI ([17]; total growth inhibition): 1.24 µM; TGI ([18]; total growth inhibition): 1.3 µM; IC50 ([18]; Homo sapiens): 650 nM; IC50 ([19]; Homo sapiens): 670 nM; TGI ([19]; total growth inhibition): 1.37; IC50 ([20]; Homo sapiens): 700 nM; TGI ([20]; total growth inhibition): 1.31 µM; IC50 ([21]; Homo sapiens): 670 nM; TGI ([21]; total growth inhibition): 1.21 µM; IC50 [22]: 800 ± 40 nM; IC50 ([23]; Homo sapiens): 530 nM; TGI ([23]; total growth inhibition): 1.1 µM; IC50 ([24]; Homo sapiens): 700 nM; TGI ([24]; total growth inhibition): 1.33; IC50 ([25]; Homo sapiens): 730 nM; TGI ([25]; total growth inhibition): 1.64 µM; IC50 ([26]; Homo sapiens): 720 nM; TGI ([26]; total growth inhibition): 1.52 µM; IC50 ([27]; Homo sapiens): 1000 nM; TGI ([27]; total growth inhibition): 2.60; IC50 ([28]; Homo sapiens): 840 nM; TGI [28, 33]: 1.95; IC50 ([29]; Homo sapiens): 690 nM; TGI ([29]; total growth inhibition): 1.43 µM; IC50 ([30]; Homo sapiens): 730 nM; TGI ([30]; total growth inhibition): 1.46 µM; TGI ([31]; total growth inhibition): 1.86; IC50 ([31]; Homo sapiens): 850 nM; TGI ([32]; Breast Cancer, HS 578T, total growth inhibition): 2.19 µM; IC50 ([32]; Homo sapiens, Hs-578T): 710 nM
